In patent US8895695B2, “Template-fixed beta-hairpin peptidomimetics with CXCR4 antagonizing activity” (priority 2003, dated 2014):
Bridge positions count the residues as written; N and C are the ends. Square brackets hold non-standard residues; d marks the D form. Peptide text beside a SMILES is read from it. N(3-imidazol-1-ylpropyl)Gly = O=C(O)CNCCCn1ccnc1; 2Nal = N[C@@H](Cc1ccc2ccccc2c1)C(=O)O; Gly(N-2-aminoethyl) = NCCNCC(=O)O; Cit = NC(=O)NCCC[C@H](N)C(=O)O; NMeK = CN[C@@H](CCCCN)C(=O)O

Columns and labels:
CXCR4 = CXCR4 (Homo sapiens, UniProt P61073); test: Ca2+-assay method 2 (Flexstation, SDF-1 induced calcium mobilization); format: cell-based; set-up: expressed in transfected cells; host or cells: mouse pre-B cell line 300-19; details: method 2 (Ex. 54-160), mouse pre-B cell line 300-19 with human CXCR4, 10 nM SDF-1; read-out: IC50 (nM) Ca^2+ assay
CXCR4, sequence (P61073 whole entry): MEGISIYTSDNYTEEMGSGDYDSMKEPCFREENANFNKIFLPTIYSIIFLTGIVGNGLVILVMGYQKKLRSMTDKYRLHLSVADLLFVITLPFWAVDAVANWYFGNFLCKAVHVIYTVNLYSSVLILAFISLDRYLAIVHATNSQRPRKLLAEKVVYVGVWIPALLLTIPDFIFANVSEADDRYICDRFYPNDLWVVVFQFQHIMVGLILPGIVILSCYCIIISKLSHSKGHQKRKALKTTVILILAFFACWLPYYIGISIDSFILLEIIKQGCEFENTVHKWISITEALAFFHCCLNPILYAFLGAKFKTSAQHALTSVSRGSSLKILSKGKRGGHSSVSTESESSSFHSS

in vitro = details: human
[1] = system: human red blood cells (hRBC); test: Hemolysis; format: cell-based
In short: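 Washed fresh human erythrocytes (20% v/v, about 0.9×10^9 cells/ml final) incubated with peptide at 100 μM for 1 h at 37° C. Supernatant diluted 20-fold and OD540 read. Percent hemolysis relative to 0.1% Triton X-100 in H2O (100%), with PBS alone as 0%.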
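Wherever GI50 is given: MTT reduction read as absorbance at 595 nm, blank-corrected and expressed as percent growth relative to the time-zero cell reading, triplicate wells per concentration.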

SMILES | IC50 (CXCR4) | GI50 at 48 h (in vitro) | Hemolysis at 100 μM [1]
C[C@@H]1NC(=O)[C@H](CCCNC(=N)N)NC(=O)[C@H](Cc2ccc(O)cc2)NC(=O)[C@@H]2CCCN2C(=O)[C@H]2CCCN2C(=O)[C@H](CCCCN)NC(=O)[C@H](CCC(N)=O)NC(=O)[C@H](Cc2ccc(O)cc2)NC(=O)[C@@H]2CSSC[C@H](NC1=O)C(=O)N[C@@H](CCCNC(=N)N)C(=O)NCC(=O)N1CCC[C@@H]1C(=O)N[C@@H](CCCNC(=N)N)C(=O)N[C@@H](CCCNC(=N)N)C(=O)N[C@@H](Cc1ccc3ccccc3c1)C(=O)N2 [Ex. 95] (cyclo(YRACRG[dP]RR[2Nal]CYQK[dP]P); disulfide 4-11) | 2.9 nM | 41000 nM | 0.1%
N=C(N)NCCC[C@@H]1NC(=O)[C@@H]2CSSC[C@H](NC(=O)[C@H](Cc3ccc4ccccc4c3)NC(=O)[C@H](CCCNC(=N)N)NC(=O)[C@H](CCCNC(=N)N)NC(=O)[C@H]3CCCN3C(=O)CNC1=O)C(=O)N[C@@H](Cc1ccc(O)cc1)C(=O)N[C@@H](CCCNC(=N)N)C(=O)N[C@@H](CCCCN)C(=O)N1CCC[C@@H]1C(=O)N1CCC[C@H]1C(=O)N[C@@H](Cc1ccc(O)cc1)C(=O)N[C@@H](CCCNC(=N)N)C(=O)N[C@@H](CCCNC(N)=O)C(=O)N2 [compound 57] (cyclo(YR[Cit]CRG[dP]RR[2Nal]CYRK[dP]P); disulfide 4-11) | 4.2 nM | 33000 nM | 0.1%
CN1C(=O)[C@H](CCCNC(N)=O)NC(=O)[C@H](Cc2ccc(O)cc2)NC(=O)[C@@H]2CSSC[C@H](NC(=O)[C@H](CCCNC(N)=O)NC(=O)[C@H](CCCNC(=N)N)NC(=O)[C@H](Cc3ccc(O)cc3)NC(=O)[C@@H]3CCCN3C(=O)[C@H]3CCCN3C(=O)[C@@H]1CCCCN)C(=O)N[C@@H](CCCNC(=N)N)C(=O)NCC(=O)N1CCC[C@@H]1C(=O)N[C@@H](CCCNC(=N)N)C(=O)N[C@@H](CCCNC(=N)N)C(=O)N[C@@H](Cc1ccc3ccccc3c1)C(=O)N2 [Ex. 127] (cyclo(YR[Cit]CRG[dP]RR[2Nal]CY[Cit][NMeK][dP]P); disulfide 4-11) | 52.2 nM | 62000 nM | 0%
N=C(N)NCCC[C@@H]1NC(=O)[C@@H]2CSSC[C@H](NC(=O)[C@H](Cc3c[nH]c4ccccc34)NC(=O)[C@H](CCCNC(=N)N)NC(=O)[C@H](CCCNC(=N)N)NC(=O)[C@H]3CCCN3C(=O)CNC1=O)C(=O)N[C@@H](Cc1ccc(O)cc1)C(=O)N[C@@H](CCCNC(N)=O)C(=O)N[C@@H](CCCCN)C(=O)N1CCC[C@@H]1C(=O)N1CCC[C@H]1C(=O)N[C@@H](Cc1ccc(O)cc1)C(=O)N[C@@H](Cc1c[nH]cn1)C(=O)N[C@@H](CCCNC(N)=O)C(=O)N2 [Ex. 105] (cyclo(YH[Cit]CRG[dP]RRWCY[Cit]K[dP]P); disulfide 4-11) | 0.62 nM | 49000 nM | 0%
C[C@@H](O)[C@@H]1NC(=O)[C@H](Cc2ccc(O)cc2)NC(=O)[C@@H]2CSSC[C@H](NC(=O)[C@H](CCCNC(N)=O)NC(=O)[C@H](CCCNC(=N)N)NC(=O)[C@H](Cc3ccc(O)cc3)NC(=O)[C@@H]3CCCN3C(=O)[C@H]3CCCN3C(=O)[C@H](CCCCN)NC1=O)C(=O)N[C@@H](CCCNC(=N)N)C(=O)NCC(=O)N1CCC[C@@H]1C(=O)N[C@@H](CCCNC(=N)N)C(=O)N[C@@H](CCCNC(=N)N)C(=O)N[C@@H](Cc1ccc3ccccc3c1)C(=O)N2 [Ex. 133] (cyclo(YR[Cit]CRG[dP]RR[2Nal]CYTK[dP]P); disulfide 4-11) | 5.3 nM | 45000 nM | 0.1%
N=C(N)NCCC[C@@H]1NC(=O)[C@@H]2CSSC[C@H](NC(=O)[C@H](Cc3ccc(O)cc3)NC(=O)[C@H](CCCNC(=N)N)NC(=O)[C@H](CCCNC(=N)N)NC(=O)[C@H]3CCCN3C(=O)CNC1=O)C(=O)N[C@@H](Cc1ccc(O)cc1)C(=O)N[C@@H](CCCNC(N)=O)C(=O)N[C@@H](CCCCN)C(=O)N1CCC[C@@H]1C(=O)N1CCC[C@H]1C(=O)N[C@@H](Cc1ccc(O)cc1)C(=O)N[C@@H](CCCNC(=N)N)C(=O)N[C@@H](CCCNC(N)=O)C(=O)N2 [Ex. 112] (cyclo(YR[Cit]CRG[dP]RRYCY[Cit]K[dP]P); disulfide 4-11) | 7.8 nM | 76000 nM | 0%
N=C(N)NCCC[C@@H]1NC(=O)CN(CCCn2ccnc2)C(=O)[C@H]2CCCN2C(=O)CNC(=O)[C@H](CCCNC(=N)N)NC(=O)[C@@H]2CSSC[C@H](NC(=O)[C@H](Cc3ccc4ccccc4c3)NC1=O)C(=O)N[C@@H](Cc1ccc(O)cc1)C(=O)N[C@@H](CCCNC(N)=O)C(=O)N[C@@H](CCCCN)C(=O)N1CCC[C@@H]1C(=O)N1CCC[C@H]1C(=O)N[C@@H](Cc1ccc(O)cc1)C(=O)N[C@@H](CCCNC(=N)N)C(=O)N[C@@H](CCCNC(N)=O)C(=O)N2 [Ex. 125] (cyclo(YR[Cit]CRG[dP][N(3-imidazol-1-ylpropyl)Gly]R[2Nal]CY[Cit]K[dP]P); disulfide 4-11) | 330 nM | > 100000 nM | 0%
N=C(N)NCCC[C@@H]1NC(=O)[C@@H]2CSSC[C@H](NC(=O)[C@H](Cc3ccc(O)cc3)NC(=O)[C@H](CCCNC(=N)N)NC(=O)[C@H](CCCNC(=N)N)NC(=O)[C@H]3CCCN3C(=O)CNC1=O)C(=O)N[C@@H](CCCNC(N)=O)C(=O)N[C@@H](Cc1ccc(O)cc1)C(=O)N[C@@H](CCCCN)C(=O)N1CCC[C@@H]1C(=O)N1CCC[C@H]1C(=O)N[C@@H](Cc1ccc(O)cc1)C(=O)N[C@@H](CCCNC(=N)N)C(=O)N[C@@H](CCCNC(N)=O)C(=O)N2 [Ex. 113] (cyclo(YR[Cit]CRG[dP]RRYC[Cit]YK[dP]P); disulfide 4-11) | 0.62 nM | 45000 nM | 0%
N=C(N)NCCC[C@@H]1NC(=O)[C@@H]2CSSC[C@H](NC(=O)[C@H](Cc3ccc(O)cc3)NC(=O)[C@H](CCCNC(=N)N)NC(=O)[C@H](CCCNC(=N)N)NC(=O)[C@H]3CCCN3C(=O)CNC1=O)C(=O)N[C@@H](Cc1ccc(O)cc1)C(=O)N[C@@H](CCC(N)=O)C(=O)N[C@@H](CCCCN)C(=O)N1CCC[C@@H]1C(=O)N1CCC[C@H]1C(=O)N[C@@H](Cc1ccc(O)cc1)C(=O)N[C@@H](CCCNC(=N)N)C(=O)N[C@@H](Cc1ccc(O)cc1)C(=O)N2 [Ex. 148] (cyclo(YRYCRG[dP]RRYCYQK[dP]P); disulfide 4-11) | 0.65 nM | 46000 nM | 71%
N=C(N)NCCC[C@@H]1NC(=O)[C@@H]2CSSC[C@H](NC(=O)[C@H](Cc3ccc4ccccc4c3)NC(=O)[C@H](CCCNC(=N)N)NC(=O)[C@H](CCCNC(=N)N)NC(=O)[C@H]3CCCN3C(=O)CNC1=O)C(=O)N[C@@H](Cc1ccc(O)cc1)C(=O)N[C@@H](CCC(N)=O)C(=O)N[C@@H](CC(N)=O)C(=O)N1CCC[C@@H]1C(=O)N1CCC[C@H]1C(=O)N[C@@H](Cc1ccc(O)cc1)C(=O)N[C@@H](CCCNC(=N)N)C(=O)N[C@@H](CCCNC(N)=O)C(=O)N2 [Ex. 84] (cyclo(YR[Cit]CRG[dP]RR[2Nal]CYQN[dP]P); disulfide 4-11) | 3.9 nM | 62000 nM | 0%
N=C(N)NCCC[C@@H]1NC(=O)[C@@H]2CSSC[C@H](NC(=O)[C@H](Cc3ccc4ccccc4c3)NC(=O)[C@H](CCCNC(=N)N)NC(=O)[C@H](CCCNC(=N)N)NC(=O)[C@H]3CCCN3C(=O)CNC1=O)C(=O)N[C@@H](Cc1ccc(O)cc1)C(=O)N[C@@H](CCC(N)=O)C(=O)N[C@@H](CCCCN)C(=O)N1CCC[C@@H]1C(=O)N1CCC[C@H]1C(=O)N[C@@H](CC(=O)O)C(=O)N[C@@H](CCCNC(=N)N)C(=O)N[C@@H](CCCNC(N)=O)C(=O)N2 [Ex. 88] (cyclo(DR[Cit]CRG[dP]RR[2Nal]CYQK[dP]P); disulfide 4-11) | 2.5 nM | 44000 nM | 0%
N=C(N)NCCC[C@@H]1NC(=O)[C@H](CCCNC(=N)N)NC(=O)[C@H]2CCCN2C(=O)CNC(=O)CN(CCN)C(=O)[C@@H]2CSSC[C@H](NC(=O)[C@H](Cc3ccc4ccccc4c3)NC1=O)C(=O)N[C@@H](Cc1ccc(O)cc1)C(=O)N[C@@H](CCCNC(N)=O)C(=O)N[C@@H](CCCCN)C(=O)N1CCC[C@@H]1C(=O)N1CCC[C@H]1C(=O)N[C@@H](Cc1ccc(O)cc1)C(=O)N[C@@H](CCCNC(=N)N)C(=O)N[C@@H](CCCNC(N)=O)C(=O)N2 [Ex. 138] (cyclo(YR[Cit]C[Gly(N-2-aminoethyl)]G[dP]RR[2Nal]CY[Cit]K[dP]P); disulfide 4-11) | 63 nM | 18000 nM | 0%
N=C(N)NCCC[C@@H]1NC(=O)[C@@H]2CSSC[C@H](NC(=O)[C@H](Cc3ccc4ccccc4c3)NC(=O)[C@H](CCCNC(=N)N)NC(=O)[C@H](CCCNC(=N)N)NC(=O)[C@H]3CCCN3C(=O)CNC1=O)C(=O)N[C@@H](Cc1ccc(O)cc1)C(=O)N[C@@H](CCC(N)=O)C(=O)N[C@@H](CCCCN)C(=O)N1CCC[C@@H]1C(=O)N1CCC[C@H]1C(=O)N[C@@H](Cc1ccc(O)cc1)C(=O)N[C@@H](CCCNC(=N)N)C(=O)N[C@@H](CC(N)=O)C(=O)N2 [Ex. 92] (cyclo(YRNCRG[dP]RR[2Nal]CYQK[dP]P); disulfide 4-11) | 1.1 nM | 53000 nM | 0.5%
N=C(N)NCCC[C@@H]1NC(=O)[C@@H]2CSSC[C@H](NC(=O)[C@H](Cc3ccc4ccccc4c3)NC(=O)[C@H](CCCNC(=N)N)NC(=O)[C@H](CCCNC(=N)N)NC(=O)[C@H]3CCCN3C(=O)CNC1=O)C(=O)N[C@@H](Cc1ccc(O)cc1)C(=O)N[C@@H](CCC(N)=O)C(=O)N[C@@H](CCCCN)C(=O)N1CCC[C@@H]1C(=O)N1CCC[C@H]1C(=O)N[C@@H](Cc1ccc(O)cc1)C(=O)N[C@@H](CCCNC(=N)N)C(=O)N[C@@H](CO)C(=O)N2 [Ex. 96] (cyclo(YRSCRG[dP]RR[2Nal]CYQK[dP]P); disulfide 4-11) | 3 nM | 69000 nM | 1%
